Reference: ChEMBL document CHEMBL1909046, “DrugMatrix in vitro pharmacology data”

Test system: not listed separately
Test: DRUGMATRIX: ATPase, Na+/K+ enzyme inhibition (substrate: ATP)
Type: tissue-based, Sus scrofa, Heart
Conditions: Not Active = under 50% inhibition at 10 µM

Compound | IC50 | Ki
O=C(O)CNCP(=O)(O)O [GLYPHOSATE] | Not Active | Not Active
CO[C@H]1O[C@@H]2O[C@@]3(C)CC[C@H]4[C@H](C)CC[C@@H]([C@H]1C)[C@@]24OO3 | Not Active | Not Active
Nc1ccc(C(=O)O)c(O)c1 [AMINOSALICYLIC ACID] | Not Active | Not Active
Nc1nc(F)nc2c1ncn2[C@@H]1O[C@H](CO)[C@@H](O)[C@@H]1O [FLUDARABINE] | Not Active | Not Active
CHROMIC CHLORIDE | Not Active | Not Active
O=C(O)CO [GLYCOLIC ACID] | Not Active | Not Active

Test system: not listed separately
Test: DRUGMATRIX: Atrial Natriuretic Factor (ANF) radioligand binding (ligand: [125I] ANF (rat))
Type: cell membranes, Cavia porcellus, Dunkin-Hartley, Adrenal gland, Membrane
Conditions: Not Active = under 50% inhibition at 10 µM

Compound | IC50 | Ki
O=C(O)CNCP(=O)(O)O [GLYPHOSATE] | Not Active | Not Active
CO[C@H]1O[C@@H]2O[C@@]3(C)CC[C@H]4[C@H](C)CC[C@@H]([C@H]1C)[C@@]24OO3 | Not Active | Not Active
Nc1ccc(C(=O)O)c(O)c1 [AMINOSALICYLIC ACID] | Not Active | Not Active
Nc1nc(F)nc2c1ncn2[C@@H]1O[C@H](CO)[C@@H](O)[C@@H]1O [FLUDARABINE] | Not Active | Not Active
CHROMIC CHLORIDE | Not Active | Not Active
O=C(O)CO [GLYCOLIC ACID] | Not Active | Not Active

Test system: not listed separately
Test: DRUGMATRIX: Calcium Channel Type L, Phenylalkylamine radioligand binding (ligand: [3H] (-)-Desmethoxyverapamil (D-888))
Type: cell membranes, Rattus norvegicus, Wistar, Brain, Membrane
Conditions: Not Active = under 50% inhibition at 10 µM

Compound | IC50 | Ki
O=C(O)CNCP(=O)(O)O [GLYPHOSATE] | Not Active | Not Active
CO[C@H]1O[C@@H]2O[C@@]3(C)CC[C@H]4[C@H](C)CC[C@@H]([C@H]1C)[C@@]24OO3 | Not Active | Not Active
Nc1ccc(C(=O)O)c(O)c1 [AMINOSALICYLIC ACID] | Not Active | Not Active
Nc1nc(F)nc2c1ncn2[C@@H]1O[C@H](CO)[C@@H](O)[C@@H]1O [FLUDARABINE] | Not Active | Not Active
CHROMIC CHLORIDE | Not Active | Not Active
O=C(O)CO [GLYCOLIC ACID] | Not Active | Not Active

Biological target: T1, C-X-C chemokine receptor type 2 (Homo sapiens, UniProt P25025); also: in other assays of this panel Not Active means under 50% inhibition at 10 µM
T1 sequence (P25025 whole entry): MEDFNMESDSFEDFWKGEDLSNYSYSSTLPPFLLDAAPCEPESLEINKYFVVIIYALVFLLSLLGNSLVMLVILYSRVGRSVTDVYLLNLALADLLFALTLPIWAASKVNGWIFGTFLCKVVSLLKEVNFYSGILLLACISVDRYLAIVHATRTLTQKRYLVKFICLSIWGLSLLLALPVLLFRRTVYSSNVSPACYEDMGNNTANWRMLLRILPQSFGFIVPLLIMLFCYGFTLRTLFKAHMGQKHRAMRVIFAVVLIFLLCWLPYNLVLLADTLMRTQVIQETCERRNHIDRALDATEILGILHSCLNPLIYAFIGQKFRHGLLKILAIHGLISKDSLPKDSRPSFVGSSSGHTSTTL
Type: cell membranes, CHO-K1, Membrane
Conditions: cho-k1

Compound | IC50 | Ki
O=C(O)CNCP(=O)(O)O [GLYPHOSATE] | Not Active | 
CO[C@H]1O[C@@H]2O[C@@]3(C)CC[C@H]4[C@H](C)CC[C@@H]([C@H]1C)[C@@]24OO3 | Not Active | 
Nc1ccc(C(=O)O)c(O)c1 [AMINOSALICYLIC ACID] | Not Active | 
Nc1nc(F)nc2c1ncn2[C@@H]1O[C@H](CO)[C@@H](O)[C@@H]1O [FLUDARABINE] | Not Active | 
CHROMIC CHLORIDE | Not Active | Not Active
O=C(O)CO [GLYCOLIC ACID] | Not Active | 

Test system: not listed separately
Test: DRUGMATRIX: Glutamate, NMDA, Agonism radioligand binding (ligand: [3H] CGP-39653)
Type: cell membranes, Rattus norvegicus, Wistar, Cerebral cortex, Membrane
Conditions: Not Active = under 50% inhibition at 10 µM

Compound | IC50 | Ki
O=C(O)CNCP(=O)(O)O [GLYPHOSATE] | Not Active | Not Active
CO[C@H]1O[C@@H]2O[C@@]3(C)CC[C@H]4[C@H](C)CC[C@@H]([C@H]1C)[C@@]24OO3 | Not Active | Not Active
Nc1ccc(C(=O)O)c(O)c1 [AMINOSALICYLIC ACID] | Not Active | Not Active
Nc1nc(F)nc2c1ncn2[C@@H]1O[C@H](CO)[C@@H](O)[C@@H]1O [FLUDARABINE] | Not Active | Not Active
CHROMIC CHLORIDE | Not Active | Not Active
O=C(O)CO [GLYCOLIC ACID] | Not Active | Not Active

Biological target: T2, Nitric oxide synthase, inducible (Mus musculus, UniProt P29477);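 also: inhibition of iNOS enzyme activity measured with L-arginine as substrate; in other assays of this panel Not Active means under 50% inhibition at 10 µM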
T2 sequence (P29477 whole entry): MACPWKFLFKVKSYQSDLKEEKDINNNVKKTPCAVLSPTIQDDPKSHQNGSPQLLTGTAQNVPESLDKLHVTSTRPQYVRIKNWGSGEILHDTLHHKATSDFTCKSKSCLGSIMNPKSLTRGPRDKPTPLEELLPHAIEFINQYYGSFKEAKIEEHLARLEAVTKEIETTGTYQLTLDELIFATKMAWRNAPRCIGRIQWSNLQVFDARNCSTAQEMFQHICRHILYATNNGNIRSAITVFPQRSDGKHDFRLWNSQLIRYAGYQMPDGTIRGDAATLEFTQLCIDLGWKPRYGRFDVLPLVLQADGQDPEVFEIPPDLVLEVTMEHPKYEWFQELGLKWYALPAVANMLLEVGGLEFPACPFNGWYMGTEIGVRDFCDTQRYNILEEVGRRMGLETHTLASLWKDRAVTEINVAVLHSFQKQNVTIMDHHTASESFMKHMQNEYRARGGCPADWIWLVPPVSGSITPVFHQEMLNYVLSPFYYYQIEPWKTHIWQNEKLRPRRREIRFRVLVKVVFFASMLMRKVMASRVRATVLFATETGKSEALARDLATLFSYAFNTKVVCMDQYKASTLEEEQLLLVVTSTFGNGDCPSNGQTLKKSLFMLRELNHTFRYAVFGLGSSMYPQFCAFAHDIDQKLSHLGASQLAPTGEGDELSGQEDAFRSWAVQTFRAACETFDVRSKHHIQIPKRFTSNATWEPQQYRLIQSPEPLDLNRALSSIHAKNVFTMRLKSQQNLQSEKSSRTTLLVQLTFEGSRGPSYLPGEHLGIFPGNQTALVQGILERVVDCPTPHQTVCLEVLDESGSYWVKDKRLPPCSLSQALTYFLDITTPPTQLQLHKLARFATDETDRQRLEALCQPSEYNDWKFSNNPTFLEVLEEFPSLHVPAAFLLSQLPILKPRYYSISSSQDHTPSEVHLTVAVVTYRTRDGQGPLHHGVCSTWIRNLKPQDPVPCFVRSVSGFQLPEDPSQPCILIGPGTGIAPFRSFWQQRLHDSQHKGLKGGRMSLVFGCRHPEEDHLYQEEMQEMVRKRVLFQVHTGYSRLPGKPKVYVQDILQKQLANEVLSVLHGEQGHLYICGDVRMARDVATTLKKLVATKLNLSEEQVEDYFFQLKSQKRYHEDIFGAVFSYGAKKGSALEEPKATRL
Design: species or system Escherichia coli
Conditions: not given

Compound | IC50 | Ki
O=C(O)CNCP(=O)(O)O [GLYPHOSATE] | Not Active | 
CO[C@H]1O[C@@H]2O[C@@]3(C)CC[C@H]4[C@H](C)CC[C@@H]([C@H]1C)[C@@]24OO3 | Not Active | 
Nc1ccc(C(=O)O)c(O)c1 [AMINOSALICYLIC ACID] | Not Active | 
Nc1nc(F)nc2c1ncn2[C@@H]1O[C@H](CO)[C@@H](O)[C@@H]1O [FLUDARABINE] | Not Active | 
CHROMIC CHLORIDE | Not Active | Not Active
O=C(O)CO [GLYCOLIC ACID] | Not Active | 

Biological target: Delta-type opioid receptor (Homo sapiens, UniProt P41143); also: in other assays of this panel Not Active means under 50% inhibition at 10 µM
Sequence (P41143 whole entry): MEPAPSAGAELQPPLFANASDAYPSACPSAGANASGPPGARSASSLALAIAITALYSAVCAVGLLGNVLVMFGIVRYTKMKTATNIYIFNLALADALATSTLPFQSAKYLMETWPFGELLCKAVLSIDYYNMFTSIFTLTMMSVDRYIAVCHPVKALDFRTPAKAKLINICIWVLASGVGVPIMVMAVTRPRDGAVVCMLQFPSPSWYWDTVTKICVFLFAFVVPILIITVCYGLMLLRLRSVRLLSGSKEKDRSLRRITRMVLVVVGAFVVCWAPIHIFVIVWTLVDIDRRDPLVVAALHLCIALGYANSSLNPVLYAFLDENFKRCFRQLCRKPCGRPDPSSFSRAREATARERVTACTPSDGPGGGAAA
Type: cell membranes, HEK293, Membrane
Conditions: hek293

Compound | IC50 | Ki
O=C(O)CNCP(=O)(O)O [GLYPHOSATE] | Not Active | 
CO[C@H]1O[C@@H]2O[C@@]3(C)CC[C@H]4[C@H](C)CC[C@@H]([C@H]1C)[C@@]24OO3 | Not Active | 
Nc1ccc(C(=O)O)c(O)c1 [AMINOSALICYLIC ACID] | Not Active | 
Nc1nc(F)nc2c1ncn2[C@@H]1O[C@H](CO)[C@@H](O)[C@@H]1O [FLUDARABINE] | Not Active | 
CHROMIC CHLORIDE | Not Active | Not Active
O=C(O)CO [GLYCOLIC ACID] | Not Active | 
